For this experiment, the system named is MV-4-11 cells. Put plainly: Gene expression microarray analysis (Affymetrix PrimeView) and GSEA. The experiment is classed as cell-based, human. Also noted: RFU PODN (11730768_x_at) / Fold change /veh PODN (11730768_x_at) / RFU LINC00158 (11744669_a_at) / Fold change /veh LINC00158 (11744669_a_at) / RFU DUSP10 (11751237_a_at) / Fold change /veh DUSP10 (11751237_a_at) / RFU ID3 (11757404_x_at) / Fold change /veh ID3 (11757404_x_at) / RFU PLEKHG5 (11737974_s_at) / Fold change /veh PLEKHG5 (11737974_s_at) / RFU LRRC4B (11730491_at) / Fold change /veh LRRC4B (11730491_at) / RFU GIMAP4 (11747438_a_at) / Fold change /veh GIMAP4 (11747438_a_at) / RFU KRT8 (11758183_x_at) / Fold change /veh KRT8 (11758183_x_at) / RFU CNN1 (11734310_a_at) / Fold change /veh CNN1 (11734310_a_at) / RFU VPS37D (11726825_at) / Fold change /veh VPS37D (11726825_at) / RFU C10orf10 (11716522_x_at) / Fold change /veh C10orf10 (11716522_x_at) / RFU KIR2DL2 /// KIR2DL4 /// KIR2DL5A /// KIR2DL5B /// KIR2DS1 /// KIR2DS2 /// KIR2DS3 /// KIR2DS4 /// KIR3DL3 /// KIR3DL3 /// KIR3DS1 (11738374_at) / Fold change /veh KIR2DL2 /// KIR2DL4 /// KIR2DL5A /// KIR2DL5B /// KIR2DS1 /// KIR2DS2 /// KIR2DS3 /// KIR2DS4 /// KIR3DL3 /// KIR3DL3 /// KIR3DS1 (11738374_at) / RFU C1QL1 (11718748_at) / Fold change /veh C1QL1 (11718748_at) / RFU TMPRSS4 (11747572_a_at) / Fold change /veh TMPRSS4 (11747572_a_at) / RFU HAMP (11756126_x_at) / Fold change /veh HAMP (11756126_x_at) / RFU RNFT2 (11725882_a_at) / Fold change /veh RNFT2 (11725882_a_at) / RFU NR4A2 (11747474_a_at) / Fold change /veh NR4A2 (11747474_a_at) / RFU ABCC12 (11746883_a_at) / Fold change /veh ABCC12 (11746883_a_at) / RFU TMEM136 (11760407_x_at) / Fold change /veh TMEM136 (11760407_x_at) / RFU CLDN22 /// WWC2 (11732394_at) / Fold change /veh CLDN22 /// WWC2 (11732394_at) / RFU HLA-DPB1 (11760878_x_at) / Fold change /veh HLA-DPB1 (11760878_x_at) / RFU SPINT1 (11716480_a_at) / Fold change /veh SPINT1 (11716480_a_at) / RFU GAP43 (11754022_s_at) / Fold change /veh GAP43 (11754022_s_at) / RFU A4GNT (11735810_at) / Fold change /veh A4GNT (11735810_at) / RFU PRB3 (11715151_x_at) / Fold change /veh PRB3 (11715151_x_at) / RFU TUBB4B (11761932_at) / Fold change /veh TUBB4B (11761932_at) / RFU CAPN14 (11732068_a_at) / Fold change /veh CAPN14 (11732068_a_at) / RFU TMCC2 (11721928_a_at) / Fold change /veh TMCC2 (11721928_a_at) / RFU IRGQ (11745062_a_at) / Fold change /veh IRGQ (11745062_a_at) / RFU FAM174B (11720279_a_at) / Fold change /veh FAM174B (11720279_a_at) / RFU TMPRSS4 (11748680_a_at) / Fold change /veh TMPRSS4 (11748680_a_at) / RFU FAM212B (11763350_a_at) / Fold change /veh FAM212B (11763350_a_at) / RFU PLEKHG5 (11743358_a_at) / Fold change /veh PLEKHG5 (11743358_a_at) / RFU ZSCAN30 (11745921_a_at) / Fold change /veh ZSCAN30 (11745921_a_at) / RFU CMKLR1 (11741424_a_at) / Fold change /veh CMKLR1 (11741424_a_at) / RFU LOC101060620 /// MAPK8IP1 (11723275_at) / Fold change /veh LOC101060620 /// MAPK8IP1 (11723275_at) / RFU SPTSSB (11747773_x_at) / Fold change /veh SPTSSB (11747773_x_at) / RFU PRSS12 (11739890_at) / Fold change /veh PRSS12 (11739890_at) / RFU BIN1 (11741810_x_at) / Fold change /veh BIN1 (11741810_x_at) / RFU WNT11 (11732464_a_at) / Fold change /veh WNT11 (11732464_a_at) / RFU C10orf10 (11716521_a_at) / Fold change /veh C10orf10 (11716521_a_at) / RFU C5orf56 (11738089_at) / Fold change /veh C5orf56 (11738089_at) / RFU CYB561 (11721691_x_at) / Fold change /veh CYB561 (11721691_x_at) / RFU ANKRD19P (11752326_a_at) / Fold change /veh ANKRD19P (11752326_a_at) / RFU OR2T12 /// OR2T33 /// OR2T8 (11738714_s_at) / Fold change /veh OR2T12 /// OR2T33 /// OR2T8 (11738714_s_at) / RFU VCAN (11748164_a_at) / Fold change /veh VCAN (11748164_a_at) / RFU JSRP1 (11732532_at) / Fold change /veh JSRP1 (11732532_at) / RFU KRTAP10-11 (11738290_x_at) / Fold change /veh KRTAP10-11 (11738290_x_at) / RFU MYO3A (11730013_a_at) / Fold change /veh MYO3A (11730013_a_at) / RFU EBF3 (11725865_a_at) / Fold change /veh EBF3 (11725865_a_at) / RFU CAMK2N1 (11719241_x_at) / Fold change /veh CAMK2N1 (11719241_x_at) / RFU C5orf56 (11738088_a_at) / Fold change /veh C5orf56 (11738088_a_at) / RFU OLFML3 (11715873_a_at) / Fold change /veh OLFML3 (11715873_a_at) / RFU LOC100653217 /// NTM (11731650_a_at) / Fold change /veh LOC100653217 /// NTM (11731650_a_at) / RFU MAPK11 (11762145_a_at) / Fold change /veh MAPK11 (11762145_a_at) / RFU FIZ1 (11724087_x_at) / Fold change /veh FIZ1 (11724087_x_at) / RFU OASL (11726364_x_at) / Fold change /veh OASL (11726364_x_at) / RFU SOX15 (11748057_x_at) / Fold change /veh SOX15 (11748057_x_at) / RFU CD79A (11719716_a_at) / Fold change /veh CD79A (11719716_a_at) / RFU HIST1H1D (11736915_at) / Fold change /veh HIST1H1D (11736915_at) / RFU CASKIN2 (11723855_a_at) / Fold change /veh CASKIN2 (11723855_a_at) / RFU LOC730098 (11760151_x_at) / Fold change /veh LOC730098 (11760151_x_at) / RFU OR4N2 (11742367_at) / Fold change /veh OR4N2 (11742367_at) / RFU PRRT2 (11749266_a_at) / Fold change /veh PRRT2 (11749266_a_at) / RFU SNX32 (11753110_a_at) / Fold change /veh SNX32 (11753110_a_at) / RFU CDHR5 (11726645_a_at) / Fold change /veh CDHR5 (11726645_a_at) / RFU RCAN1 (11760418_a_at) / Fold change /veh RCAN1 (11760418_a_at) / RFU FAM167A (11723789_a_at) / Fold change /veh FAM167A (11723789_a_at) / RFU FAM26E (11764081_at) / Fold change /veh FAM26E (11764081_at) / RFU ISYNA1 (11749810_s_at) / Fold change /veh ISYNA1 (11749810_s_at) / RFU ACY1 (11761880_at) / Fold change /veh ACY1 (11761880_at) / RFU 11764098_at / Fold change /veh 11764098_at / RFU SAMD14 (11745864_x_at) / Fold change /veh SAMD14 (11745864_x_at) / RFU NPB (11741838_a_at) / Fold change /veh NPB (11741838_a_at) / RFU TMPRSS6 (11731388_a_at) / Fold change /veh TMPRSS6 (11731388_a_at) / RFU KRTAP10-2 (11738614_at) / Fold change /veh KRTAP10-2 (11738614_at) / RFU ARHGAP8 /// PRR5-ARHGAP8 (11727945_x_at) / Fold change /veh ARHGAP8 /// PRR5-ARHGAP8 (11727945_x_at) / RFU KRTAP5-7 /// NADSYN1 (11734609_at) / Fold change /veh KRTAP5-7 /// NADSYN1 (11734609_at) / RFU RASL12 (11751679_a_at) / Fold change /veh RASL12 (11751679_a_at) / RFU CDKN2B (11736163_a_at) / Fold change /veh CDKN2B (11736163_a_at) / RFU PRF1 (11729649_at) / Fold change /veh PRF1 (11729649_at) / RFU, ZNF638 /// ZNF638-IT1 / Fold change vs veh, ZNF638 /// ZNF638-IT1 / RFU, PANK3 / Fold change vs veh, PANK3 / RFU, SH3YL1 / Fold change vs veh, SH3YL1 / RFU, ZEB2 / Fold change vs veh, ZEB2 / RFU, NRIP1 / Fold change vs veh, NRIP1 / RFU, PTTG1IP / Fold change vs veh, PTTG1IP / RFU, CAPN2 / Fold change vs veh, CAPN2 / RFU, MED14 / Fold change vs veh, MED14 / RFU, SNORA58 / Fold change vs veh, SNORA58 / RFU, C1orf63 / Fold change vs veh, C1orf63 / RFU, LRRFIP1 / Fold change vs veh, LRRFIP1 / RFU, NDUFAF7 / Fold change vs veh, NDUFAF7 / RFU, SLC12A2 / Fold change vs veh, SLC12A2 / RFU, IBTK / Fold change vs veh, IBTK / RFU, ESF1 / Fold change vs veh, ESF1 / Fold change vs veh, TMEM50B / RFU, TAOK1 / Fold change vs veh, TAOK1 / RFU, ACBD3 / Fold change vs veh, ACBD3 / RFU, TMA16 / Fold change vs veh, TMA16 / RFU, RWDD3 / Fold change vs veh, RWDD3 / RFU, BCAT1 / Fold change vs veh, BCAT1 / RFU, EDEM3 / Fold change vs veh, EDEM3 / RFU, TMEM33 / Fold change vs veh, TMEM33 / RFU, WDR75 / Fold change vs veh, WDR75 / RFU, AHCTF1 / Fold change vs veh, AHCTF1 / RFU, TFRC / Fold change vs veh, TFRC / RFU, ZDHHC17 / Fold change vs veh, ZDHHC17 / RFU, NOM1 / Fold change vs veh, NOM1 / RFU, ARL8B / Fold change vs veh, ARL8B / RFU, ZBTB11 / Fold change vs veh, ZBTB11 / RFU, TAMM41 / Fold change vs veh, TAMM41 / RFU, KIAA1704 /// LOC100996395 / Fold change vs veh, KIAA1704 /// LOC100996395 / RFU, ING1 / Fold change vs veh, ING1 / RFU, TRMT61B / Fold change vs veh, TRMT61B / RFU, FUBP3 / Fold change vs veh, FUBP3 / RFU, TP53 / Fold change vs veh, TP53 / RFU, TNKS2 / Fold change vs veh, TNKS2 / RFU, ZFP14 / Fold change vs veh, ZFP14 / RFU, ACTR2 / Fold change vs veh, ACTR2 / RFU, PPP3R1 / Fold change vs veh, PPP3R1 / RFU, PIK3R1 / Fold change vs veh, PIK3R1 / RFU, HNRNPA1 / Fold change vs veh, HNRNPA1 / RFU, RNF170 / Fold change vs veh, RNF170 / RFU, ZNF28 / Fold change vs veh, ZNF28 / RFU, RNGTT / Fold change vs veh, RNGTT / RFU, OGT / Fold change vs veh, OGT / RFU, BRD1 / Fold change vs veh, BRD1 / RFU, MARS / Fold change vs veh, MARS / RFU, ZNF655 / Fold change vs veh, ZNF655 / RFU, FAHD1 / Fold change vs veh, FAHD1 / RFU, BDP1 / Fold change vs veh, BDP1 / RFU, LRRCC1 / Fold change vs veh, LRRCC1 / RFU, ARID1A / Fold change vs veh, ARID1A / RFU, ZNF146 / Fold change vs veh, ZNF146 / RFU, ZNF330 / Fold change vs veh, ZNF330 / RFU, GPN3 / Fold change vs veh, GPN3 / RFU, C9orf123 / Fold change vs veh, C9orf123 / RFU, N4BP2L2 / Fold change vs veh, N4BP2L2 / RFU, ARFIP1 / Fold change vs veh, ARFIP1 / RFU, FAM179B / Fold change vs veh, FAM179B / RFU, BCL10 / Fold change vs veh, BCL10 / RFU, UHRF1BP1L / Fold change vs veh, UHRF1BP1L / RFU, BET1 / Fold change vs veh, BET1 / RFU, CNOT2 / Fold change vs veh, CNOT2 / RFU, ZNF268 / Fold change vs veh, ZNF268 / Fold change vs veh, ZNF507 / RFU, DGCR2 / Fold change vs veh, DGCR2 / RFU, WDSUB1 / Fold change vs veh, WDSUB1 / Fold change vs veh, HSP90B1 /// MIR3652 / RFU, ADSS / Fold change vs veh, ADSS / RFU, GK / Fold change vs veh, GK / RFU, ZNF148 / Fold change vs veh, ZNF148 / RFU, TAF9 / Fold change vs veh, TAF9 / RFU, SLC1A5 / Fold change vs veh, SLC1A5 / RFU, SLMO2 / Fold change vs veh, SLMO2 / RFU, ABCC4 / Fold change vs veh, ABCC4 / RFU, LOC101060439 /// RAP1B / Fold change vs veh, LOC101060439 /// RAP1B / RFU, RFX7 / Fold change vs veh, RFX7 / RFU, GTPBP10 / Fold change vs veh, GTPBP10 / RFU, CNEP1R1 / Fold change vs veh, CNEP1R1 / RFU, BIVM-ERCC5 /// ERCC5 / Fold change vs veh, BIVM-ERCC5 /// ERCC5 / RFU, ILF3 / Fold change vs veh, ILF3 / RFU 11762660_at / Fold change /veh 11762660_at / RFU VCAN (11757783_s_at) / Fold change /veh VCAN (11757783_s_at) / RFU DDX43 (11728927_at) / Fold change /veh DDX43 (11728927_at) / RFU KRT8 (11758188_x_at) / Fold change /veh KRT8 (11758188_x_at) / RFU NKD1 (11759106_at) / Fold change /veh NKD1 (11759106_at) / RFU SRD5A1 (11742802_a_at) / Fold change /veh SRD5A1 (11742802_a_at) / RFU TPSAB1 /// TPSB2 (11721975_s_at) / Fold change /veh TPSAB1 /// TPSB2 (11721975_s_at) / RFU GSTM3 (11746129_a_at) / Fold change /veh GSTM3 (11746129_a_at) / RFU IL23R (11737362_x_at) / Fold change /veh IL23R (11737362_x_at) / RFU TMEM51 (11727254_a_at) / Fold change /veh TMEM51 (11727254_a_at) / RFU PIWIL2 (11732686_x_at) / Fold change /veh PIWIL2 (11732686_x_at) / RFU ORM1 (11744905_x_at) / Fold change /veh ORM1 (11744905_x_at) / RFU CCDC152 (11743942_at) / Fold change /veh CCDC152 (11743942_at) / RFU ECM1 (11717891_a_at) / Fold change /veh ECM1 (11717891_a_at) / RFU IL23R (11748794_a_at) / Fold change /veh IL23R (11748794_a_at) / RFU TNFAIP8L3 (11732012_x_at) / Fold change /veh TNFAIP8L3 (11732012_x_at) / RFU MBOAT4 (11741988_at) / Fold change /veh MBOAT4 (11741988_at) / RFU 11764193_at / Fold change /veh 11764193_at / RFU TMEM53 (11763286_at) / Fold change /veh TMEM53 (11763286_at) / RFU MAGEB2 (11727129_at) / Fold change /veh MAGEB2 (11727129_at) / RFU TMEM200A (11744735_a_at) / Fold change /veh TMEM200A (11744735_a_at) / RFU CCDC152 (11751479_a_at) / Fold change /veh CCDC152 (11751479_a_at) / RFU FAM211A (11726209_a_at) / Fold change /veh FAM211A (11726209_a_at) / RFU RGS16 (11746705_a_at) / Fold change /veh RGS16 (11746705_a_at) / RFU VCAN (11755009_s_at) / Fold change /veh VCAN (11755009_s_at) / RFU RHOB (11743442_s_at) / Fold change /veh RHOB (11743442_s_at) / RFU RGS16 (11720943_a_at) / Fold change /veh RGS16 (11720943_a_at) / RFU RGS16 (11720944_at) / Fold change /veh RGS16 (11720944_at) / RFU, VPS4B / Fold change vs veh, VPS4B / RFU, CREB1 / Fold change vs veh, CREB1 / RFU, DNAJC13 / Fold change vs veh, DNAJC13 / RFU, GNAQ / Fold change vs veh, GNAQ / RFU, CDK5R1 / Fold change vs veh, CDK5R1 / RFU, ZRANB3 / Fold change vs veh, ZRANB3 / RFU, CUL4A / Fold change vs veh, CUL4A / RFU, CCNY / Fold change vs veh, CCNY / RFU, UFL1 / Fold change vs veh, UFL1 / RFU, COG3 / Fold change vs veh, COG3 / RFU, DIAPH2 / Fold change vs veh, DIAPH2 / RFU, SKA2 / Fold change vs veh, SKA2 / RFU, AFF3 / Fold change vs veh, AFF3 / RFU, LMF1 / Fold change vs veh, LMF1 / RFU, IPO11 / Fold change vs veh, IPO11 / RFU, DFFB / Fold change vs veh, DFFB / RFU, FOXP1 / Fold change vs veh, FOXP1 / RFU, CARD8 / Fold change vs veh, CARD8 / RFU, STRN3 / Fold change vs veh, STRN3 / RFU, ADK / Fold change vs veh, ADK / RFU, RASSF2 / Fold change vs veh, RASSF2 / RFU, WIPF1 / Fold change vs veh, WIPF1 / RFU, LARP1B / Fold change vs veh, LARP1B / RFU, RASA1 / Fold change vs veh, RASA1 / RFU, RB1 / Fold change vs veh, RB1 / RFU, PPFIA1 / Fold change vs veh, PPFIA1 / RFU, MAT2A / Fold change vs veh, MAT2A / RFU, CCT5 / Fold change vs veh, CCT5 / RFU, WDR92 / Fold change vs veh, WDR92 / RFU, CUX1 / Fold change vs veh, CUX1 / RFU, TTC7A / Fold change vs veh, TTC7A / RFU, TMEM135 / Fold change vs veh, TMEM135 / RFU, DEPTOR / Fold change vs veh, DEPTOR / RFU, CPM / Fold change vs veh, CPM / RFU, DNAJB6 / Fold change vs veh, DNAJB6 / RFU, CACNA2D3 / Fold change vs veh, CACNA2D3 / RFU, DTX4 / Fold change vs veh, DTX4 / RFU, TFCP2 / Fold change vs veh, TFCP2 / RFU, GMCL1 /// GMCL1P1 / Fold change vs veh, GMCL1 /// GMCL1P1 / RFU, AEBP2 / Fold change vs veh, AEBP2 / RFU, SNHG1 /// SNORD22 /// SNORD25 /// SNORD26 /// SNORD27 /// SNORD28 /// SNORD29 /// SNORD31 / Fold change vs veh, SNHG1 /// SNORD22 /// SNORD25 /// SNORD26 /// SNORD27 /// SNORD28 /// SNORD29 /// SNORD31 / Fold change (Aza/veh), C12orf56 (ProbeSet 11735607_a_at) / Fold change (ACY-1035/veh), C12orf56 (ProbeSet 11735607_a_at) / Fold change (Aza/veh), FGFR1OP (ProbeSet 11751329_s_at) / Fold change (ACY-1035/veh), FGFR1OP (ProbeSet 11751329_s_at) / Fold change (Aza/veh), VPS36 (ProbeSet 11739960_a_at) / Fold change (ACY-1035/veh), VPS36 (ProbeSet 11739960_a_at) / RFU SYPL1 (11715823_x_at) / Fold change /veh SYPL1 (11715823_x_at) / RFU IGFBP7 (11715501_s_at) / Fold change /veh IGFBP7 (11715501_s_at) / RFU REEP3 (11722064_at) / Fold change /veh REEP3 (11722064_at) / RFU IGLL1 (11728026_x_at) / Fold change /veh IGLL1 (11728026_x_at): dose or concentration left out as unconfirmed. The following applies: ProbeSet 11760938_a_at; LIST D.

On to `Nc1ccc(-c2cccs2)cc1NC(=O)c1ccc2c(c1)cc(C1CC1)n2CCN1CCOCC1` [ACY-1035], for which the “RFU, MAT2A” value stood at 163.17 RFU.

(Values after paper PMC5218480 (PLoS ONE, 2017).)
